Data reported in ChEMBL document CHEMBL4130410, “Novel rhynchophylline analogues as microvascular relaxation agents for the treatment of microvascular dysfunction caused by diabetes” (Eur J Med Chem, 2017).
pIC50: −log10 of the molar value. Active and inactive are the calls of the source. The rule behind the calls is not given here.

Columns and labels:
[1] = tested on: Thoracic aorta; assay: Vasorelaxant activity in rat thoracic aorta; assay type: functional, tissue-based
[2] = tested on: Mesenteric artery; assay: Vasorelaxant activity in Sprague-Dawley rat endothelium intact mesentric artery rings assessed as inhibition of phenylephrine-induced contraction; assay type: functional, tissue-based
[3] = tested on: Mesenteric artery; assay: Vasorelaxant activity in Sprague-Dawley rat endothelium intact mesentric artery rings assessed as inhibition of KCl-induced contraction; assay type: functional, tissue-based
[4] = tested on: Mesenteric artery; assay: Vasorelaxant activity in Sprague-Dawley rat endothelium denuded mesentric artery rings assessed as inhibition of phenylephrine-induced contraction; assay type: functional, tissue-based
[5] = tested on: Mesenteric artery; assay: Vasorelaxant activity in Sprague-Dawley rat endothelium denuded mesentric artery rings assessed as inhibition of KCl-induced contraction; assay type: functional, tissue-based
[6] = tested on: Mesenteric artery; assay: Vasorelaxant activity in Sprague-Dawley rat endothelium intact mesentric artery rings assessed as inhibition of phenylephrine-induced contraction in presence of non-selective calcium-activated K+ channel blocker TEA/VGCC blocker nifedipine; assay type: functional, tissue-based
[7] = tested on: Mesenteric artery; assay: Vasorelaxant activity in endothelium intact mesentric artery rings isolated from streptozotocin-induced type-1 diabetic Sprague-Dawley rat model assessed as inhibition of phenylephrine-induced contraction; assay type: functional, tissue-based
[8] = tested on: Rattus norvegicus; assay: In vivo vasorelaxant activity in streptozotocin-induced type-1 diabetic Sprague-Dawley rat model assessed as increase in acetylcholine-induced endothelium dependent relaxation in mesentric artery rings at 20 mg/kg, po via gavage for 1 week starting from 8 week post diabetic induction; assay type: functional, organism-based
[9] = tested on: Rattus norvegicus; assay: In vivo vasorelaxant activity in streptozotocin-induced type-1 diabetic Sprague-Dawley rat model assessed as inhibition of phenylephrine-induced contraction in mesentric artery rings at 20 mg/kg, po via gavage for 1 week starting from 8 week post diabetic induction; assay type: functional, organism-based
[10] = tested on: Rattus norvegicus; assay: (§1) In vivo vasorelaxant activity in streptozotocin-induced type-1 diabetic Sprague-Dawley rat model assessed as protection against eNOS loss in vessels at 20 mg/kg, po via gavage for 1 week starting from 8 week post diabetic induction by hematoxylin and eosin staining based assay; assay type: functional, organism-based
[11] = tested on: Rattus norvegicus; assay: as §1, with “vessels by measuring increase in eNOS protein expression” for “vessels”, “Western blot method” for “hematoxylin and eosin staining based assay”; assay type: functional, organism-based
[12] = tested on: Mesenteric artery; assay: Vasorelaxant activity in endothelium intact mesentric artery rings isolated from streptozotocin-induced type-1 diabetic Sprague-Dawley rat model assessed as inhibition of phenylephrine-induced contraction in presence of eNOS inhibitor L-NAME; assay type: functional, tissue-based
[13] = tested on: Mesenteric artery; assay: Vasorelaxant activity in mesentric artery rings isolated from Sprague-Dawley rat assessed as inhibition of phenylephrine-induced contraction in presence of eNOS inhibitor L-NAME; assay type: functional, tissue-based
[14] = tested on: Thoracic aorta; assay: Potency index, ratio of rhynchophylline IC50 to compound IC50 for vasorelaxant activity in rat thoracic aorta; assay type: functional

In the case of `COC(=O)CC1CC2c3[nH]c4ccccc4c3CCN2CC1CCO` (racemic), the pIC50 [1] was 5.23, the Emax [2] was 99.9% and the pIC50 [2] was 6.30. For the same compound, the inhibition [2] was “Dose-dependent effect”, the inhibition [3] was “inactive” and the Emax [4] was 99.7%. For the same compound, the pIC50 [4] was 5.92, the inhibition [5] was “inactive” and the inhibition [6] was “Active”. The inhibition [7] was “Active”, the Activity [8] was “Active” and the inhibition [9] was “Active”. The Activity [10] was “Active”, the Activity [11] was “Active” and the inhibition [12] was “inactive”. The inhibition [13] was “inactive” and the “Ratio IC50” value [14] was “<=30”.

With `COC(=O)C[C@H]1C[C@@H]2c3[nH]c4ccccc4c3CCN2C[C@H]1CCO` the pIC50 [1] was 6.70, the Emax [2] was 100% and the pIC50 [2] was 7.04. The inhibition [2] was “Dose-dependent effect”, the inhibition [3] was “inactive” and the Emax [4] was 101%. For the same compound, the pIC50 [4] was 5.29, the inhibition [5] was “inactive” and the inhibition [6] was “inactive”. For the same compound, the inhibition [7] was “Active”, the inhibition [12] was “inactive” and the inhibition [13] was “inactive”. The “Ratio IC50” value [14] was “<=30”.

`CC[C@H]1CN2CC[C@]3(C(=O)Nc4ccccc43)[C@@H]2C[C@@H]1/C(=C/OC)C(=O)OC` was tested, and the pIC50 [1] was 3.76.

`COC(=O)C[C@@H]1C[C@H]2c3[nH]c4ccccc4c3CCN2C[C@@H]1CCO` showed a pIC50 [1] of 5.43, an Emax [2] of 99.1% and a pIC50 [2] of 5.11. For the same compound, the inhibition [2] was “Dose-dependent effect”, the inhibition [3] was “inactive” and the Emax [4] was 86.3%. The pIC50 [4] was 4.30, the inhibition [5] was “inactive” and the inhibition [6] was “Active”. The inhibition [12] was “inactive”, the inhibition [13] was “inactive” and the “Ratio IC50” value [14] was “<=30”.
